From US7973135B2, “Compositions and methods for targeting cancer-specific transcription complexes” (Oncotx, Inc., priority 2006, dated 2011)

Key:
Type in all cases: cell-based, human
[1] = test system: WM 266-4 cells; assay: Apoptosis (Annexin V-Cy3 kit) of melanoma cells treated with peptides; conditions: for Apoptosis, result in words (summary of Table 2): 10 μM; for Apoptosis 7 days/%: peptide 10 μM
Description: (§1) Human melanoma cell lines SK-MEL-28 and WM-266-4 were obtained from the American Type Culture Collection (ATCC; Manassas, Va.; SK-MEL-28 deposited by T. Takehashi and subject to release terms set by The Memorial Sloan-Kettering Cancer Center; WM-266-4 deposited by M. Herlyn). Cells were cultured according to recommendations of ATCC (DMEM, 10% FCS, penicillin+streptomycin) and used in experiments after two passages in the laboratory. Cells were grown in 24 well plates, each treatment in triplicates. Cells were plated 16 hours prior treatments started. Peptides were added to the media, and media was changed every day during 7 day experiment. CPP concentration was 10 μM.
(§2) Apoptosis was analyzed using Biovision Annexin V-Cy3 Apoptosis Kit according to manufacturer's protocols.
(§3) Effects of peptide drug candidates BAF57 P12 and TRAP100 P05 on cell proliferation and apoptosis were analyzed using human melanoma cell lines SK-MEL-28 and WM 266-4. Therapeutic peptides were added at a concentration of 10 μM directly to culture media. Internalization and translocation of the therapeutic peptide(s) into the cell nucleus was studied using fluorescein labeled peptides. […] As controls we used scrambled peptides. […] Simultaneous incubation of melanoma cells with both peptides caused complete inhibition of proliferation and induction of apoptosis in almost all treated cells.

[2] = test system: SK-MEL-28 cells; assay: as above; conditions: for Apoptosis, result in words (summary of Table 2) / Apoptosis 7 days/%: SK-MEL-28; for Apoptosis, result in words (summary of Table 2): 10 μM; for Apoptosis 7 days/%: peptide 10 μM; for Apoptosis of melanoma cells in vitro, result in words (library screening): screening of peptide libraries using SK-MEL-28
Description: as §1, §2, §3

[3] = test system: WM 266-4 cells; assay: Cell proliferation (cell counting) of melanoma cells treated with peptides; conditions: for Proliferation, result in words (summary of Table 2): 10 μM; for Cell Count 7 days: peptide 10 μM in media, start count 10, 7 days
Description: as §1
(§4) For cell counting, cells were trypsinized (0.25% Trypsin, 2 mM EDTA) in Ca+2, Mg+2 free PBS. Cells were precipitated and resuspended in 100 μl of PBS, and 5 μl were removed for counting
as §3

[4] = test system: SK-MEL-28 cells; assay: as above; conditions: for Proliferation, result in words (summary of Table 2) / Cell Count 7 days: SK-MEL-28; for Proliferation, result in words (summary of Table 2): 10 μM; for Cell Count 7 days: peptide 10 μM in media, start count 10; for Growth of melanoma cells in vitro, result in words (library screening): screening of peptide libraries using SK-MEL-28
Description: as §1, §4, §3

Sequence	Apoptosis, result in words (summary of Table 2) [1]	Apoptosis 7 days/% [1] [%]	Apoptosis, result in words (summary of Table 2) [2]	Apoptosis 7 days/% [2] [%]	Apoptosis of melanoma cells in vitro, result in words (library screening) [2]	Proliferation, result in words (summary of Table 2) [3]	Cell Count 7 days [3]	Proliferation, result in words (summary of Table 2) [4]	Cell Count 7 days [4]	Growth of melanoma cells in vitro, result in words (library screening) [4]
PKKRKVRRRRRRRPQMQQNVFQYPGAGMVPQGEANF (listed as Homo sapiens) [TRAP100 P05, NLS-CPP-interfering peptide targeting mediator complex containing cancer specific isoform of MED24/TRAP100]	induce apoptosis	78	induce apoptosis	78	stimulate apoptosis	suppress significantly proliferation	15	suppress significantly proliferation	12	inhibit growth of melanoma cells
PKKRKVRRRRRRRNDRLSDGDSKYSQTSHKLVQLL (listed as Homo sapiens) [BAF57 P12, NLS-CPP-interfering peptide targeting chromatin modifying complex containing cancer specific isoform of BAF57]	induce apoptosis	59	induce apoptosis	65	stimulate apoptosis	suppress significantly proliferation	17	suppress significantly proliferation	16	inhibit growth of melanoma cells
